Assay results: patent US12486246B2, “Replication protein A (RPA)-DNA interaction inhibitors” (THE TRUSTEES OF INDIANA UNIVERSITY, priority 2019, dated 2025)

Experiments:
[1] = molecular target: T1, RPA-AB construct (RPA70 AB domain) (Homo sapiens, UniProt P27694); assay: Differential scanning fluorimetry (DSF); format: binding
T1 construct: The DBD-A/B construct was expressed as a His6-RPA181-422 fusion protein; His6 (N); made in house; host or cells: E. coli BL21 (DE3)
Method: In order to probe the potential role of DNA intercalation as a mechanism for RPA inhibition, compounds 19, 23, 26, 27, 43 and 45 were analyzed using FID assay along with doxorubicin (Dox) as a positive control. […] In addition, direct binding of 9 derivatives to the target protein was assessed using a differential scan fluorimetry (DSF) assay. This assay assesses the melting profile of a protein at increasing temperatures via fluorescent dye binding. The direct interaction of a small molecule to the target protein can either increase or decrease the melting temperature (Tm) of the target depending on the specific protein and their interactions. […] Heparin sulfate, a known RPA interacting molecule often used in the purification of the protein was used as a control. […] (data not shown). […] (FIG. 1B).
The interaction of compound 43 with RPA-AB constructs was performed by differential scanning fluorimetry using GloMelt™ Dye (Biotum). […] Reactions were run in an ABI 7500 real time PCR machine with temperature increasing from 25° C. to 99° C. at a 2% ramp (˜40 minutes) and fluorescence of the reporter was measured on the SYBR® Green setting. […] Data was uploaded to TSA-CRAFT software and Tm calculated as described by Lee et al. Heparin was employed as a positive control of binding to the AB-box of RPA.

[2] = system: sonicated salmon sperm DNA; assay: Fluorescent intercalator displacement (FID) assay, SYBR-Green; format: binding; conditions: 25 mM MOPS pH 6.5
Procedure, shortened: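 Displacement of SYBR-Green from sonicated salmon sperm DNA (8.29 ng/μL) in 25 mM MOPS pH 6.5 with compound at indicated concentrations; doxorubicin positive control. Fluorescence (Ex 485/Em 528 nm) read within 5 min of incubation.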

[3] = molecular target: T2, full length heterotrimeric human RPA (Homo sapiens, UniProt P27694); assay: Electrophoretic mobility shift assay (EMSA), binding of full length human RPA to ssDNA; conditions: full length human RPA binding to DNA, mean ± SD of minimum triplicate experiments
T2 construct: Full length, heterotrimeric human RPA (fl-RPA) and DBD-A/B constructs were expressed and purified; made in house
Procedure, shortened: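 Full-length human RPA (50 nM) preincubated 30 min with compound (DMSO ≤5%), then 2.5 nM 5′-32P 34-base ssDNA added for 5 min at room temperature in 20 mM HEPES pH 7.8, 50 mM NaCl. Bound/unbound resolved by 6% native PAGE, phosphorimager quantified; IC50 by non-linear regression.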

T2 sequence (P27694 whole entry): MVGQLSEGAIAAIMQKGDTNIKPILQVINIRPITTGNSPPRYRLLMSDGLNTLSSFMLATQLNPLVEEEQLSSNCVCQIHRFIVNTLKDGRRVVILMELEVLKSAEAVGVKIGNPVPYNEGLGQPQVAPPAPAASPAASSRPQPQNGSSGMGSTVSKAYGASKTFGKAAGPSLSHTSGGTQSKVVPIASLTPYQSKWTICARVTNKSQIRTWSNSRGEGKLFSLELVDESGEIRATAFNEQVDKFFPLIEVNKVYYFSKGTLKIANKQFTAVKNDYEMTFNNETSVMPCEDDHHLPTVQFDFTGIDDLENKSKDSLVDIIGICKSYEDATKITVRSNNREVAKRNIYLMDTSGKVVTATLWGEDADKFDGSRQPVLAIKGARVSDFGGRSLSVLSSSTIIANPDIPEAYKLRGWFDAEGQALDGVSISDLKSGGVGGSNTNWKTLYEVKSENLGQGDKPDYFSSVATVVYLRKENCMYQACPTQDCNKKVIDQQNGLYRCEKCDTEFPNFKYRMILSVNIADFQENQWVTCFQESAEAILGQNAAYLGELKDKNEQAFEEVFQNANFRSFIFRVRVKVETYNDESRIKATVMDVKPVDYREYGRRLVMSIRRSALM
T2 sequence (P15927 whole entry partner): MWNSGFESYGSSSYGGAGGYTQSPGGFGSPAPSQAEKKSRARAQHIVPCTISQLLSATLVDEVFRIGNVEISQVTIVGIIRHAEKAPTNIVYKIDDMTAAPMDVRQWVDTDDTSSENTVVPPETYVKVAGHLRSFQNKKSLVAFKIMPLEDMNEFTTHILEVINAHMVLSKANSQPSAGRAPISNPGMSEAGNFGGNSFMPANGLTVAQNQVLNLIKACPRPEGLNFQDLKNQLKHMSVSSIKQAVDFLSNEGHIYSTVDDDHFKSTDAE
T2 sequence (P35244 whole entry partner): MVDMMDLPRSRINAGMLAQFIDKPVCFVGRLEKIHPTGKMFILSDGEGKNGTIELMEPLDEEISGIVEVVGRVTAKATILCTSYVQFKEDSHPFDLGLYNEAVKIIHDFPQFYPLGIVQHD
T1 sequence (P27694 181-422): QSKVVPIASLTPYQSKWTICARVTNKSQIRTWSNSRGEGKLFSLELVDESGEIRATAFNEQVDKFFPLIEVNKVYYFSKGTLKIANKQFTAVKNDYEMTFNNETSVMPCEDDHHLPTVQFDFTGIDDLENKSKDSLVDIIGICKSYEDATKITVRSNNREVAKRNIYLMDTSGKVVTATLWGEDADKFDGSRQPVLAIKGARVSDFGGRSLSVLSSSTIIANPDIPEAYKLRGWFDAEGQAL

CCOc1ccc2cc(C3CC(c4ccc(I)cc4)=NN3C(=O)CCCC(=O)NCCCN3CCOCC3)c(Cl)nc2c1 (stereo not drawn) [Compound 43, 5-(5-(2-Chloro-7-ethoxyquinolin-3-yl)-3-(4-iodophenyl)-4,5-dihydro-1H-pyrazol-1-yl)-N-(3-morpholinopropyl)-5-oxopentanamide]
increase in Tm [1]: 0.6 °C | DNA binding activity (displacement of SYBR-Green intercalator) [2]: No significant DNA binding activity | IC50 [3]: 4.99 ± 0.28 µM
